Source: patent US20220142888A1, “COMPOSITION FOR IMPROVING SKIN CONDITIONS” (NEOPHARM CO., LTD., priority 2020, published 2022)

What was measured:
[1] = tested on: human β-defensin-3 (hBD-3); test: Expression of antimicrobial peptide BD-3 in human epidermal keratinocytes, real-time PCR; assay type: cell-based; conditions: NHEKs, 1% sample (in H2O), 24 hours, gene level, FIG. 3
Experimental: (§1) In order to confirm the effect of enhancing the skin immunity and defense of each of Examples and Comparative Example of the present invention, the activities of peptide LL-37 (cathelicidin-related antimicrobial peptide (CAMP)), human β-defensin-2 (hBD-2), and human β-defensin-3 (hBD-3) having antimicrobial efficacy were confirmed.
(§2) In order for the confirmation, human epidermal keratinocytes (NHEKs) were dispensed into a 96-well plate, and the cells were cultured under cell culture conditions for 24 hours. Thereafter, the cells were treated with a control, DMSO, and a 1% sample (in H2O) of each of Examples and Comparative Example, and the cells were additionally cultured for 24 hours. A real-time PCR method was performed to determine LL-37, BD-2, and BD-3 at a gene-level. The test procedure is as follows.
(§3) SuperPrep™ cell lysis and RT Kit for qPCR (TOYOBO, SCQ-101) were used for RNA isolation and cDNA synthesis. The cells from which the medium was removed were washed once with phosphate-buffered saline (PBS), 50 μl of a cell lysis mixture (including gDNA remover) was added and reacted for 5 minutes, and then, a stop solution was added. […] QuantiTect primer assays of Qiagen were used in the experiment as a primer, and the expression levels of LL-37, BD-2, and BD-3 in the samples were quantified as GADPH and compared with each other. […]

[2] = tested on: human β-defensin-2 (hBD-2); test: Expression of antimicrobial peptide BD-2 in human epidermal keratinocytes, real-time PCR; assay type: cell-based; conditions: NHEKs, 1% sample (in H2O), 24 hours, gene level, FIG. 2
Experimental: as §1, §2, §3

[3] = tested on: LL-37 (cathelicidin-related antimicrobial peptide (CAMP)); test: Expression of antimicrobial peptide LL-37 in human epidermal keratinocytes, real-time PCR; assay type: cell-based; conditions: NHEKs, 1% sample (in H2O), 24 hours, gene level, FIG. 1
Experimental: as §1, §2, §3

[4] = tested on: filaggrin; test: Expression level of filaggrin in keratinocytes, real-time PCR; assay type: cell-based; conditions: 24 hours, versus untreated control, FIG. 5
Experimental: In order to measure the effect of promoting the expression of moisturizing factors of each of Examples and Comparative Example of the present invention, the expression levels of filaggrin and loricrin were measured.
Specifically, keratinocytes purchased from Invitrogen Corporation were cultured in EpiLife (keratinocyte growth medium) containing a supplement (human keratinocyte growth supplement (HKGS)) for a predetermined time, and then, the cells were subcultured three times and then used. The keratinocytes which were subcultured three times were cultured to a confluence of 70 to 80% in a 6-well plate, each of the wells was separately treated with each of the samples, and then, the keratinocytes were cultured for a total of 24 hours. RNA of the keratinocytes was extracted from the cultured cells using easy BLUE, and then, cDNA synthesis was performed using SuperScript reverse transcriptase III kit. Real-time PCR for comparing the genes was performed using 2× TaqMan universal PCR mixture (10 μl), 20× TaqMan expression assay mix (1 μl), cDNA (50 ng), and a primer (Filaggrin: Hs00856927_g1*, Loricrin: Hs01894962_s1*) and a 7500 Fast Real-Time PCR system. In addition, a sample treated with 10 μM IGF-1 was used as a positive control group, and a control that was not treated with the sample was used as a comparison group.

[5] = tested on: desmoglein1 (DSG1) gene; test: Expression of desmoglein1 (DSG1) gene in UVB-irradiated NHEKs, Taqman real-time PCR; assay type: cell-based, human; conditions: UVB 25 mJ/cm^2, 10 nM sample, 4th day of culture, FIG. 6
Experimental: In order to confirm the effect of strengthening the skin barrier of each of Examples and Comparative Example of the present invention, an expression level of DSG1 gene as an intercellular binding factor was confirmed.
Specifically, normal human epidermal keratinocytes (NHEKs) were cultured in a 6-well plate incubator. After 24 hours, the keratinocyes were washed with phosphate-buffered saline (PBS), irradiation with UVB (25 mJ/cm^2) was performed, a 10 nM sample of each of Examples and Comparative Example was added to the NHEK culture medium, and then, culture was performed. The cells were harvested on the 4th day of culture, RNA was separated, cDNA was synthesized by a reverse transcriptional polymerase chain reaction (RT-PCR), Taqman real-time PCR was performed using the synthesized cDNA, and then, the expression level of the DSG1 gene as a keratinocyte differentiation marker was measured.

Row | SMILES | expression level of antimicrobial peptide BD-3 relative to that in Example 2 [1] [%] | expression level of antimicrobial peptide BD-2 relative to that in Example 2 [2] [%] | expression level of antimicrobial peptide LL-37 relative to that in Example 2 [3] [%] | expression level of filaggrin, increase relative to the expression level in the control [4] [times] | expression level of desmoglein1, increase relative to the expression level in the UVB treatment group [5] [times]
1 | CCCCCC(=O)N[C@@H](Cc1ccc(O)cc1)C(=O)OC [Comparative Example 1, Defensamide] | 40 | 33 | 40 |  | 
2 | CCCCCCCCCC(=O)NC(CO)C(=O)OCC (stereo not shown) [Example 1, N-(1-oxodecyl)serine ethyl ester] |  |  |  | ≥ 4.3 | ≥ 4.1
3 | CCCCCCCCCC(=O)NC(CO)C(=O)OC (stereo not shown) [Example 2, N-(1-oxodecyl)serine methyl ester] |  |  |  | ≥ 3.8 | ≥ 4.5
